Source: patent publication US20150133547A1, “METHOD AND COMPOSITION FOR TREATING GLAUCOMA” (priority 2013, published 2015)

Columns and labels:
canine subjects [1] = assay: Adverse events in canine subjects after topical LC (daily ophthalmic examinations, toxicology studies of blood)
[2] = cited from earlier work
canine subjects [3] = assay: Intraocular pressure (IOP) in canine subjects after topical LC drops, iCARE rebound tonometer; type: in vivo
Method: Preparations: The desired composition was DMSO 4.0%, PG 3.0% and LC 10 mg/ml (1% (by weight)), based upon the total composition.
A vehicle was prepared for use as a subsequent dilution (serial dilutions of the initial LC strength), by mixing 4.65 ml of BSS, 0.2 ml of DMSO, and 0.15 ml of PG, to yield a diluent vehicle comprising 4.0% DMSO and 3.0% PG, based upon the total composition. A total of 5 ml was prepared.
Methodology: Inventive compositions were prepared by simple mixing.
IOP was determined using an iCARE® rebound tonometer. Other commercially available IOP measuring devices (tonometers) may also be used.
Progressive dilutions of the composition set forth in Table 1 are shown in Table 2, below, starting with the original 2.5 ml volume preparation of Table 1. These subsequent dilutions were used in the canine experiments set forth below.
The experiments were conducted on canine subjects. Canine subjects have IOP's that are the same (˜10-20 mm/Hg) as that of a human subject. Canines and humans share a common susceptibility gene, SRBD1, for glaucoma risk. Consequently, canines are excellent surrogates to assess the results of the use of the inventive compositions on humans. The results of the experiments are set forth in Table 3, below, reflecting the concentration range of LC used as 0.002% to 0.100% (by weight).
Additional efficacy and safety experiments were conducted using an LC concentration of 0.600% (by weight) in the same animal model. This additional data confirms in two animals the safety and efficacy of topical LC in reducing intraocular pressure.
A series of experiments was run in the same canine model, using LC concentrations, prepared as above, and ranging from 0.200% to 0.700% (by weight).

Humans = conditions: handling of pure or concentrated lambda-cyhalothrin; cited from earlier work
guinea pigs = conditions: cited from earlier work
rats = conditions: cited from earlier work
rabbits = conditions: cited from earlier work
[4] = cited from earlier work; remark: listed apart in the source
[5] = cited from earlier work; remark: listed apart in the source
[6] = Example 2, canine, topical LC 0.600%, Day 1, drop 9:30, IOP at 9:55
[7] = Example 2, canine, topical LC 0.600%, Day 1, drop 12:00, IOP at 12:30
[8] = Example 2, canine, topical LC 0.600%, Day 3, drop 9:45, IOP at 10:15
[9] = Example 2, canine, topical LC 0.600%, Day 3, drop 12:10, IOP at 12:40
[10] = Example 3, canine, topical LC 0.200%, Day 2, drop 7:40, IOP at 8:45
[11] = Example 3, canine, topical LC 0.300%, Day 3, drop 7:25, IOP at 7:25
[12] = Example 3, canine, topical LC 0.300%, Day 3, drop 12:25, IOP at 13:50
[13] = Example 3, canine, topical LC 0.300%, Day 3, drop 17:40, IOP at 17:30
[14] = Example 3, canine, topical LC 0.400%, Day 4, drop 7:25, IOP at 7:20
[15] = Example 3, canine, topical LC 0.400%, Day 4, drop 12:40, IOP at 12:35
[16] = Example 3, canine, topical LC 0.400%, Day 4, drop 17:25, IOP at 17:20
[17] = Example 3, canine, topical LC 0.500%, Day 5, drop 7:30, IOP at 7:20
[18] = Example 3, canine, topical LC 0.500%, Day 5, drop 12:40, IOP at 12:35
[19] = Example 3, canine, topical LC 0.600%, Day 8, drop 7:30, IOP at 7:00
[20] = Example 3, canine, topical LC 0.600%, Day 8, drop 12:05, IOP at 12:00
[21] = Example 3, canine, topical LC 0.600%, Day 8, drop 17:00, IOP at 16:30
[22] = Example 3, canine, topical LC 0.700%, Day 9, drop 7:05, IOP at 7:00
[23] = Example 3, canine, topical LC 0.700%, Day 9, drop 12:25, IOP at 12:20
[24] = Example 3, canine, topical LC 0.700%, Day 9, drop 17:05, IOP at 17:00
[25] = canine, topical LC 0.002%, Day 4, drop 8:30, IOP at 9:50
[26] = canine, topical LC 0.002%, Day 5, drop 9:00, IOP at 9:50
[27] = canine, topical LC 0.002%, Day 5, drop 14:30, IOP at 15:00
[28] = canine, topical LC 0.020%, Day 7, drop 9:00, IOP at 9:30
[29] = canine, topical LC 0.020%, Day 7, drop 15:00, IOP at 16:00
[30] = canine, topical LC 0.050%, Day 9, drop 9:00, IOP at 9:30
[31] = canine, topical LC 0.050%, Day 9, drop 15:00, IOP at 16:00
[32] = canine, topical LC 0.100%, Day 11, drop 9:00, IOP at 9:42
[33] = canine, topical LC 0.100%, Day 11, drop 15:00, IOP at 15:22

## CC1(C)C(/C=C(\Cl)C(F)(F)F)C1C(=O)OC(C#N)c1cccc(Oc2ccccc2)c1 [LC, (R)-cyano(3-phenoxyphenyl) methyl (1S,3S)-rel-3-[(1Z)-2-chloro-3,3,3-trifluoro-1-propenyl]-2,2-dimethyl cyclopropane carboxylate]
Canine subjects [1]; Example 1, daily complete ophthalmic examinations and toxicology studies of blood
  local or systemic adverse events: no local or systemic adverse events
Canine subjects [1]; Example 2, topical LC 0.600%, Day 1, drop 9:30
  AE: 0
Canine subjects [1]; Example 2, topical LC 0.600%, Day 1, drop 12:00
  AE: 0
Canine subjects [1]; Example 2, topical LC 0.600%, Day 3, drop 9:45
  AE: 0
Canine subjects [1]; Example 2, topical LC 0.600%, Day 3, drop 12:10
  AE: 0
Canine subjects [1]; Example 3, topical LC 0.200%, Day 2, drop 7:40
  AE: 0
Canine subjects [1]; Example 3, topical LC 0.200%, Day 2, drop 12:22
  AE: 0
Canine subjects [1]; Example 3, topical LC 0.200%, Day 2, drop 17:05
  AE: 0
Canine subjects [1]; Example 3, topical LC 0.300%, Day 3, drop 7:25
  AE: 0
Canine subjects [1]; Example 3, topical LC 0.300%, Day 3, drop 12:25
  AE: 0
Canine subjects [1]; Example 3, topical LC 0.300%, Day 3, drop 17:40
  AE: 0
Canine subjects [1]; Example 3, topical LC 0.400%, Day 4, drop 7:25
  AE: 0
Canine subjects [1]; Example 3, topical LC 0.400%, Day 4, drop 12:40
  AE: 0
Canine subjects [1]; Example 3, topical LC 0.400%, Day 4, drop 17:25
  AE: 0
Canine subjects [1]; Example 3, topical LC 0.500%, Day 5, drop 7:30
  AE: 0
Canine subjects [1]; Example 3, topical LC 0.500%, Day 5, drop 12:40
  AE: 0
Canine subjects [1]; Example 3, topical LC 0.600%, Day 8, drop 7:30
  AE: 0
Canine subjects [1]; Example 3, topical LC 0.600%, Day 8, drop 12:05
  AE: 0
Canine subjects [1]; Example 3, topical LC 0.600%, Day 8, drop 17:00
  AE: 0
Canine subjects [1]; Example 3, topical LC 0.700%, Day 9, drop 7:05
  AE: 0
Canine subjects [1]; Example 3, topical LC 0.700%, Day 9, drop 12:25
  AE: 1
Canine subjects [1]; Example 3, topical LC 0.700%, Day 9, drop 17:05
  AE: 1
Canine subjects [1]; topical 0.002% to 0.600% LC
  adverse events at doses other than 0.700%: No adverse events
Canine subjects [1]; topical 0.700% LC
  adverse events at the 0.700% dose: minimal, reversible inferior conjunctival hyperemia
Canine subjects [1]; topical LC 0.002%, Day 4, drop 8:30
  AE (adverse event): 0
Canine subjects [1]; topical LC 0.002%, Day 5, drop 9:00
  AE (adverse event): 0
Canine subjects [1]; topical LC 0.002%, Day 5, drop 14:30
  AE (adverse event): 0
Canine subjects [1]; topical LC 0.020%, Day 7, drop 9:00
  AE (adverse event): 0
Canine subjects [1]; topical LC 0.020%, Day 7, drop 15:00
  AE (adverse event): 0
Canine subjects [1]; topical LC 0.050%, Day 9, drop 9:00
  AE (adverse event): 0
Canine subjects [1]; topical LC 0.050%, Day 9, drop 15:00
  AE (adverse event): 0
Canine subjects [1]; topical LC 0.100%, Day 11, drop 9:00
  AE (adverse event): 0
Canine subjects [1]; topical LC 0.100%, Day 11, drop 15:00
  AE (adverse event): 0
[2]
  water solubility: low
Canine subjects [3]; Example 1, canine, 0.002% to 0.100% (by weight), dose related
  reduction in intraocular pressure after topical administration: significant reduction
Canine subjects [3]; [6]
  IOP OD: 8
  IOP OS: 7
Canine subjects [3]; [7]
  IOP OD: 8
  IOP OS: 8
Canine subjects [3]; [8]
  IOP OD: 6
  IOP OS: 7
Canine subjects [3]; [9]
  IOP OD: 7
  IOP OS: 7
Canine subjects [3]; [10]
  IOP OD: 8
  IOP OS: 7
Canine subjects [3]; [11]
  IOP OD: 13
  IOP OS: 10
Canine subjects [3]; [12]
  IOP OD: 6
  IOP OS: 7
Canine subjects [3]; [13]
  IOP OD: 9
  IOP OS: 8
Canine subjects [3]; [14]
  IOP OD: 12
  IOP OS: 11
Canine subjects [3]; [15]
  IOP OD: 7
  IOP OS: 7
Canine subjects [3]; [16]
  IOP OD: 7
  IOP OS: 7
Canine subjects [3]; [17]
  IOP OD: 9
  IOP OS: 10
Canine subjects [3]; [18]
  IOP OD: 7
  IOP OS: 7
Canine subjects [3]; [19]
  IOP OD: 7
  IOP OS: 7
Canine subjects [3]; [20]
  IOP OD: 6
  IOP OS: 6
Canine subjects [3]; [21]
  IOP OD: 7
  IOP OS: 8
Canine subjects [3]; [22]
  IOP OD: 8
  IOP OS: 7
Canine subjects [3]; [23]
  IOP OD: 7
  IOP OS: 7
Canine subjects [3]; [24]
  IOP OD: 6
  IOP OS: 5
Canine subjects [3]; after exposure
  persistence of the reduction of intra-ocular pressure: hours to days
Canine subjects [3]; canine, dosages ranging from 0.002% to 0.700% LC (by weight), overall
  reduction of IOP: 35-40%
Canine subjects [3]; [25]
  IOP OD (intraocular pressure right eye): 8
  IOP OS (intraocular pressure left eye): 8
Canine subjects [3]; [26]
  IOP OD (intraocular pressure right eye): 8
  IOP OS (intraocular pressure left eye): 8
Canine subjects [3]; [27]
  IOP OD (intraocular pressure right eye): 8
  IOP OS (intraocular pressure left eye): 9
Canine subjects [3]; [28]
  IOP OD (intraocular pressure right eye): 10
  IOP OS (intraocular pressure left eye): 9
Canine subjects [3]; [29]
  IOP OD (intraocular pressure right eye): 10
  IOP OS (intraocular pressure left eye): 7
Canine subjects [3]; [30]
  IOP OD (intraocular pressure right eye): 11
  IOP OS (intraocular pressure left eye): 11
Canine subjects [3]; [31]
  IOP OD (intraocular pressure right eye): 7
  IOP OS (intraocular pressure left eye): 8
Canine subjects [3]; [32]
  IOP OD (intraocular pressure right eye): 9
  IOP OS (intraocular pressure left eye): 10
Canine subjects [3]; [33]
  IOP OD (intraocular pressure right eye): 11
  IOP OS (intraocular pressure left eye): 5
Humans
  onset of symptoms after exposure: ≤ 30 min
  symptoms reported on exposure: facial tingling and burning
Guinea pigs
  skin sensitivity in guinea pigs: no skin sensitivity
rats
  EPA toxicity class, skin effects for rats: moderately toxic
rabbits
  toxicity in skin effects for rabbits: low toxicity
[4]
  EPA toxicity class, eye effects: moderately toxic
[5]
  EPA toxicity class when inhaled: moderately toxic
